Source: patent US20080064667A1, “OXAZOLE DERIVATIVES OF TETRACYCLINES” (Wyeth, priority 2003, published 2008)
In brackets after ≈: the same amount, converted by molar mass.

What was measured:
Test in all cases: MIC, broth microdilution (NCCLS)
Format in all cases: cell-based
[1] = test system: C. albicans GC3066 ATCC (Control); conditions: Candida albicans, Mueller-Hinton II broth, 18-22 hours at 35° C.
E. coli GC1073 (tet(B)) = conditions: Escherichia coli
Outline: (§1)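 Broth microdilution per NCCLS M7-A5 in Mueller-Hinton II broth, inoculum 10^5 CFU/ml. Plates incubated 18-22 h at 35 °C in ambient air; MIC is lowest inhibitory antibiotic concentration.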

[2] = test system: E. coli GC2203 (ATCC Control); conditions: Escherichia coli, Mueller-Hinton II broth, 18-22 hours at 35° C.
Outline: as §1

E. coli GC2270 (tet(M)) = conditions: Escherichia coli
Outline: as §1

[3] = test system: E. coli GC4559 (parent GC4560); conditions: Escherichia coli, Mueller-Hinton II broth, 18-22 hours at 35° C.
Outline: as §1

[4] = test system: E. coli GC4560 (IMP mutant); conditions: Escherichia coli
Outline: as §1

[5] = test system: E. faecalis GC2242 (Van-resistant); conditions: Enterococcus faecalis, Mueller-Hinton II broth, 18-22 hours at 35° C.
Outline: as §1

[6] = test system: E. faecalis GC2267 (tet(L) + (M) + (S)); conditions: Enterococcus faecalis
Outline: as §1

[7] = test system: E. faecalis GC4555 (ATCC Control); conditions: Enterococcus faecalis, Mueller-Hinton II broth, 18-22 hours at 35° C.
Outline: as §1

[8] = test system: H. influenzae<> GC6896 (ATCC Control); conditions: Haemophilus influenzae, Mueller-Hinton II broth, 18-22 hours at 35° C.
Outline: as §1

[9] = test system: M. catarrhalis* GC6907 (Clinical); conditions: Moraxella catarrhalis, Mueller-Hinton II broth, 18-22 hours at 35° C.
Outline: as §1

[10] = test system: S. aureus GC1079 (tet(K)); conditions: Staphylococcus aureus, Mueller-Hinton II broth, 18-22 hours at 35° C.
Outline: as §1

[11] = test system: S. aureus GC1131 (Clinical); conditions: Staphylococcus aureus, Mueller-Hinton II broth, 18-22 hours at 35° C.
Outline: as §1

[12] = test system: S. aureus GC2216 (ATCC Control); conditions: Staphylococcus aureus, Mueller-Hinton II broth, 18-22 hours at 35° C.
Outline: as §1

[13] = test system: S. aureus GC4536 (Smith MP -In Vivo); conditions: Staphylococcus aureus, Mueller-Hinton II broth, 18-22 hours at 35° C.
Outline: as §1

[14] = test system: S. aureus GC6466 (tet(M)); conditions: Staphylococcus aureus, Mueller-Hinton II broth, 18-22 hours at 35° C.
Outline: as §1

[15] = test system: S. pneumoniae* GC1894 (Clinical); conditions: Streptococcus pneumoniae, Mueller-Hinton II broth, 18-22 hours at 35° C.
Outline: as §1

[16] = test system: S. pneumoniae* GC4465 (Clinical); conditions: Streptococcus pneumoniae, Mueller-Hinton II broth, 18-22 hours at 35° C.
Outline: as §1

[17] = test system: S. pyogenes* GC4563 (Clinical); conditions: Streptococcus pyogenes, Mueller-Hinton II broth, 18-22 hours at 35° C.
Outline: as §1

[18] = test system: S. aureus GC6467 (tet(M) + (K)); conditions: Staphylococcus aureus
Outline: as §1

Row | SMILES | MIC [1] | MIC (E. coli GC1073 (tet(B))) | MIC [2] | MIC (E. coli GC2270 (tet(M))) | MIC [3] | MIC [4] | MIC [5] | MIC [6] | MIC [7] | MIC [8] | MIC [9] | MIC [10] | MIC [11] | MIC [12] | MIC [13] | MIC [14] | MIC [15] | MIC [16] | MIC [17] | MIC [18]
1 | CN(C)c1cc2nc(-c3ccsc3)oc2c2c1C[C@H]1C[C@H]3[C@H](N(C)C)C(O)=C(C(N)=O)C(=O)[C@@]3(O)C(O)=C1C2=O [Example 17, (6aR,7aS,8S,11aS)-5,8-bis(dimethylamino)-9,11a,12-trihydroxy-11,13-dioxo-2-thien-3-yl-6,6a,7,7a,8,11,11a,13-octahydrotetraceno[2,1-d][1,3]oxazole-10-carboxamide] | > 64 µg/mL | > 64 µg/mL | > 64 µg/mL | > 64 µg/mL | > 64 µg/mL | 4 µg/mL (≈ 7.08 µM) | 8 µg/mL (≈ 14.2 µM) | 16 µg/mL (≈ 28.3 µM) | 8 µg/mL (≈ 14.2 µM) | > 64 µg/mL | 16 µg/mL (≈ 28.3 µM) | 8 µg/mL (≈ 14.2 µM) | 8 µg/mL (≈ 14.2 µM) | 8 µg/mL (≈ 14.2 µM) | 8 µg/mL (≈ 14.2 µM) | 8 µg/mL (≈ 14.2 µM) | 32 µg/mL (≈ 56.7 µM) | 32 µg/mL (≈ 56.7 µM) | 16 µg/mL (≈ 28.3 µM) | 
2 | CN(C)c1cc2nc(-c3ccc4c(c3)OCO4)oc2c2c1C[C@H]1C[C@H]3[C@H](N(C)C)C(O)=C(C(N)=O)C(=O)[C@@]3(O)C(O)=C1C2=O [Example 14, (6aR,7aS,8S,11aS)-2-(1,3-benzodioxol-5-yl)-5,8-bis(dimethylamino)-9,11a,12-trihydroxy-11,13-dioxo-6,6a,7,7a,8,11,11a,13-octahydrotetraceno[2,1-d][1,3]oxazole-10-carboxamide] | > 64 µg/mL | > 64 µg/mL | > 64 µg/mL | > 64 µg/mL | > 64 µg/mL | 16 µg/mL (≈ 26.6 µM) | 4 µg/mL (≈ 6.64 µM) |  | 8 µg/mL (≈ 13.3 µM) | > 64 µg/mL | 4 µg/mL (≈ 6.64 µM) | 4 µg/mL (≈ 6.64 µM) | 4 µg/mL (≈ 6.64 µM) | 4 µg/mL (≈ 6.64 µM) | 4 µg/mL (≈ 6.64 µM) | 4 µg/mL (≈ 6.64 µM) | 16 µg/mL (≈ 26.6 µM) | 16 µg/mL (≈ 26.6 µM) | 16 µg/mL (≈ 26.6 µM) | 8 µg/mL (≈ 13.3 µM)
3 | CN(C)Cc1nc2cc(N(C)C)c3c(c2o1)C(=O)C1=C(O)[C@]2(O)C(=O)C(C(N)=O)=C(O)[C@@H](N(C)C)[C@@H]2C[C@@H]1C3 [Example 36, (6aR,7aS,8S,11aS)-5,8-bis(dimethylamino)-2-[(dimethylamino)methyl]-9,11a,12-trihydroxy-11,13-dioxo-6,6a,7,7a,8,11,11a,13-octahydrotetraceno[2,1-d][1,3]oxazole-10-carboxamide] | > 64 µg/mL |  | 2 µg/mL (≈ 3.71 µM) |  | 4 µg/mL (≈ 7.41 µM) | 1 µg/mL (≈ 1.85 µM) | 4 µg/mL (≈ 7.41 µM) |  | 4 µg/mL (≈ 7.41 µM) | 4 µg/mL (≈ 7.41 µM) | 1 µg/mL (≈ 1.85 µM) | 4 µg/mL (≈ 7.41 µM) | 4 µg/mL (≈ 7.41 µM) | 2 µg/mL (≈ 3.71 µM) | 4 µg/mL (≈ 7.41 µM) | 4 µg/mL (≈ 7.41 µM) | 1 µg/mL (≈ 1.85 µM) | 1 µg/mL (≈ 1.85 µM) | 1 µg/mL (≈ 1.85 µM) | 16 µg/mL (≈ 29.7 µM)
4 | CC(=O)OCc1ccc(-c2nc3cc(N(C)C)c4c(c3o2)C(=O)C2=C(O)[C@]3(O)C(=O)C(C(N)=O)=C(O)[C@@H](N(C)C)[C@@H]3C[C@@H]2C4)o1 [Example 21, {5-[(6aR,7aS,8S,11aS)-10-(aminocarbonyl)-5,8-bis(dimethylamino)-9,11a,12-trihydroxy-11,13-dioxo-6,6a,7,7a,8,11,11a,13-octahydrotetraceno[2,1-d][1,3]oxazol-2-yl]-2-furyl}methyl acetate] | > 64 µg/mL | > 64 µg/mL | > 64 µg/mL | > 64 µg/mL | > 64 µg/mL | > 64 µg/mL | 32 µg/mL | 64 µg/mL | > 64 µg/mL | > 64 µg/mL | > 64 µg/mL | 32 µg/mL | 64 µg/mL | 32 µg/mL | 64 µg/mL | 32 µg/mL | > 64 µg/mL | > 64 µg/mL | > 64 µg/mL | 
5 | CN(C)c1ccc(-c2nc3cc(N(C)C)c4c(c3o2)C(=O)C2=C(O)[C@]3(O)C(=O)C(C(N)=O)=C(O)[C@@H](N(C)C)[C@@H]3C[C@@H]2C4)cc1 [Example 8, (6aR,7aS,8S,11aS)-5,8-bis(dimethylamino)-2-[4-(dimethylamino)phenyl]-9,11a,12-trihydroxy-11,13-dioxo-6,6a,7,7a,8,11,11a,13-octahydrotetraceno[2,1-d][1,3]oxazole-10-carboxamide] | > 64 µg/mL | > 64 µg/mL | > 64 µg/mL | > 64 µg/mL | > 64 µg/mL | 16 µg/mL (≈ 26.6 µM) | 8 µg/mL (≈ 13.3 µM) | 16 µg/mL (≈ 26.6 µM) | 32 µg/mL (≈ 53.2 µM) | > 64 µg/mL | 64 µg/mL (≈ 106 µM) | 16 µg/mL (≈ 26.6 µM) | 8 µg/mL (≈ 13.3 µM) | 8 µg/mL (≈ 13.3 µM) | 16 µg/mL (≈ 26.6 µM) | 16 µg/mL (≈ 26.6 µM) | 16 µg/mL (≈ 26.6 µM) | 32 µg/mL (≈ 53.2 µM) | 16 µg/mL (≈ 26.6 µM) | 
6 | CCCCNCc1nc2cc(N(C)C)c3c(c2o1)C(=O)C1=C(O)[C@]2(O)C(=O)C(C(N)=O)=C(O)[C@@H](N(C)C)[C@@H]2C[C@@H]1C3 [Example 39, (6aR,7aS,8S,11aS)-2-[(butylamino)methyl]-5,8-bis(dimethylamino)-9,11a,12-trihydroxy-11,13-dioxo-6,6a,7,7a,8,11,11a,13-octahydrotetraceno[2,1-d][1,3]oxazole-10-carboxamide] | > 64 µg/mL |  | 32 µg/mL (≈ 56.4 µM) |  | 32 µg/mL (≈ 56.4 µM) | 8 µg/mL (≈ 14.1 µM) | 32 µg/mL (≈ 56.4 µM) | 64 µg/mL (≈ 113 µM) | 32 µg/mL (≈ 56.4 µM) | 64 µg/mL (≈ 113 µM) | 8 µg/mL (≈ 14.1 µM) | 64 µg/mL (≈ 113 µM) | 32 µg/mL (≈ 56.4 µM) | 32 µg/mL (≈ 56.4 µM) | 32 µg/mL (≈ 56.4 µM) | 32 µg/mL (≈ 56.4 µM) | 8 µg/mL (≈ 14.1 µM) | 8 µg/mL (≈ 14.1 µM) | 8 µg/mL (≈ 14.1 µM) | > 64 µg/mL
7 | CN(C)c1cc2nc(-c3ccc(OCc4ccccc4)cc3)oc2c2c1C[C@H]1C[C@H]3[C@H](N(C)C)C(O)=C(C(N)=O)C(=O)[C@@]3(O)C(O)=C1C2=O [Example 11, (6aR,7aS,8S,11aS)-2-[4-(benzyloxy)phenyl]-5,8-bis(dimethylamino)-9,11a,12-trihydroxy-11,13-dioxo-6,6a,7,7a,8,11,11a,13-octahydrotetraceno[2,1-d](1,3]oxazole-10-carboxamide] | > 64 µg/mL | > 64 µg/mL | > 64 µg/mL | > 64 µg/mL | > 64 µg/mL | > 64 µg/mL | 64 µg/mL (≈ 96.3 µM) | > 64 µg/mL | 64 µg/mL (≈ 96.3 µM) | > 64 µg/mL | 32 µg/mL (≈ 48.1 µM) | 64 µg/mL (≈ 96.3 µM) | 32 µg/mL (≈ 48.1 µM) | 64 µg/mL (≈ 96.3 µM) | 64 µg/mL (≈ 96.3 µM) | 64 µg/mL (≈ 96.3 µM) | 32 µg/mL (≈ 48.1 µM) | 32 µg/mL (≈ 48.1 µM) | 32 µg/mL (≈ 48.1 µM) | 
